Article PMC2440032, “Odorranalectin Is a Small Peptide Lectin with Potential for Drug Delivery and Targeting” (PLoS ONE, 2008)
“And” between values parts separate entries of the source, which are not always exact repeats. Equal values may be shown once.

Assays:
[1] = system: odorranalectin-mediated erythrocytes hemagglutination; test: Hemagglutination-inhibition test; assay type: cell-based, rabbit; conditions: for MIC, minimum concentration to inhibit odorranalectin-mediated erythrocytes hemagglutination: inhibition of four hemagglutination doses of odorranalectin
Experimental: Intact, pronase-treated, trypsin-treated, and formaldehyde-treated rabbit erythrocytes were prepared. Assays were carried out in U-well microtiter plates (96 wells) as described previously [21]–[23]. The details are provided in the supplementary materials (Materials and Methods S1).
Inhibition was expressed as the minimum concentration of each sugar or glycoprotein required for inhibition of hemagglutination of titer 4 of the lectin.

[2] = molecular target: immobilized odorranalectin (Odorrana grahami, UniProt B3TFE9); test: SPR, analytes on immobilized odorranalectin; assay type: binding
Experimental: Real time detection of odorranalectin and its mutants binding to glycoproteins and L-fucose was recorded by using a Biacore 3000 [21]–[24]. The details are provided in the supplementary materials (Materials and Methods S1).
SPR Analysis. Real time detection of odorranalectin and its mutants binding to glycoproteins and L-fucose was recorded by using a Biacore 3000 [21-24]. Odorranalectin was immobilized covalently via their primary amines to carboxyl groups within a dextran layer on the sensor chip CM-5 according to the manufacturer’s specifications. After chip activation with 0.4 M 1-ethyl-3- (3-dimethylaminopropyl) carbodiimide hydrochloride and 10 mM N-hydroxysuccinimide, odorranalectin or its mutants (in 10 mM sodium acetate buffer, pH 4.0) at a concentration of 100 μg/ml was passed through the flow cells at a rate of 5 μl/min. After immobilization, the chip was capped by exposure to 1 M ethanolamine (pH 8.5).
All analyses were performed at a flow rate of 30 μl/min. Before loading of analytes, the chip was equilibrated with 10 mM HEPES-buffered saline containing 3 mM EDTA and 0.005% surfactant P-20, pH 7.4 (HBS-EP). Each analyte at various concentrations in the same buffer was injected over the immobilized ligand for 4 min. After injection of the analyte, HBS-EP was introduced onto the sensor surface to start dissociation, and dissociation data were collected for 5 min. The chip was regenerated by injection of 5μl of 10 mM HCl or NaOH, followed by HBS-EP.
Association and dissociation rate constants (ka and kd) were calculated by using BIA evaluation 4.0 software (Biacore AB, Sweden). The affinity constant (KD) was calculated from the ka and kd. For the calculation of rate constants, samples were appropriately diluted in HBS-EP at various concentrations.

[3] = SPR Biacore 3000, CM-5 chip, HBS-EP pH 7.4, 1:1 binding model

O=[N+]([O-])c1ccccc1O[C@@H]1O[C@H](CO)[C@H](O)[C@H](O)[C@H]1O [2-nitrophenyl-β-D-galactopyranoside]
MIC, minimum concentration to inhibit odorranalectin-mediated erythrocytes hemagglutination ([1]; sugars): > 200 mM

OC[C@H]1O[C@@H](Oc2c[nH]c3ccc(Br)c(Cl)c23)[C@H](O)[C@@H](O)[C@H]1O [5-bromo-4-chloro-3-indoxyl-β-D-galactopyranoside]
MIC, minimum concentration to inhibit odorranalectin-mediated erythrocytes hemagglutination ([1]; sugars): > 200 mM

OC1OC[C@@H](O)[C@@H](O)[C@@H]1O (stereo partly drawn) [D(+)-arabinose]
MIC, minimum concentration to inhibit odorranalectin-mediated erythrocytes hemagglutination ([1]; sugars): > 200 mM

OC[C@H]1O[C@@H](O[C@H]2[C@H](O)[C@@H](O)[C@H](O)O[C@@H]2CO)[C@H](O)[C@@H](O)[C@@H]1O [D(+)-cellobiose]
MIC, minimum concentration to inhibit odorranalectin-mediated erythrocytes hemagglutination ([1]; sugars): > 200 mM

OC[C@H]1OC(O)[C@H](O)[C@@H](O)[C@H]1O (stereo partly drawn) [D(+)-galactose]
MIC, minimum concentration to inhibit odorranalectin-mediated erythrocytes hemagglutination ([1]; sugars): > 200 mM

O=C(O)[C@H]1OC(O)[C@H](O)[C@@H](O)[C@H]1O (stereo partly drawn) [D(+)-galacturonic acid]
MIC, minimum concentration to inhibit odorranalectin-mediated erythrocytes hemagglutination ([1]; sugars): > 200 mM

O.OC[C@H]1O[C@@](CO)(O[C@H]2O[C@H](CO)[C@@H](O)[C@H](O)[C@H]2O)[C@@H](O[C@H]2O[C@H](CO)[C@@H](O)[C@H](O)[C@H]2O)[C@@H]1O [D(+)-melezitose monohydrate]
MIC, minimum concentration to inhibit odorranalectin-mediated erythrocytes hemagglutination ([1]; sugars): > 200 mM

O.O.O.O.O.OC[C@H]1O[C@H](OC[C@H]2O[C@H](O[C@]3(CO)O[C@H](CO)[C@@H](O)[C@@H]3O)[C@H](O)[C@@H](O)[C@@H]2O)[C@H](O)[C@@H](O)[C@H]1O [D(+)-raffinose pentahydrate]
MIC, minimum concentration to inhibit odorranalectin-mediated erythrocytes hemagglutination ([1]; sugars): > 200 mM

OC1COC(O)C(O)C1O (stereo not drawn) [D(+)-xylose]
MIC, minimum concentration to inhibit odorranalectin-mediated erythrocytes hemagglutination ([1]; sugars): > 200 mM

OC[C@H]1OC(O)[C@H](O)[C@@H](O)[C@@H]1O (stereo partly drawn) [D-glucose]
MIC, minimum concentration to inhibit odorranalectin-mediated erythrocytes hemagglutination ([1]; sugars): > 200 mM

O=C(CO)[C@H](O)[C@@H](O)[C@H](O)CO [D-sorbose]
MIC, minimum concentration to inhibit odorranalectin-mediated erythrocytes hemagglutination ([1]; sugars): > 200 mM

OC[C@H]1O[C@H](O[C@H]2O[C@H](CO)[C@@H](O)[C@H](O)[C@H]2O)[C@H](O)[C@@H](O)[C@@H]1O [D-trehalose]
MIC, minimum concentration to inhibit odorranalectin-mediated erythrocytes hemagglutination ([1]; sugars): > 200 mM

C[C@@H]1O[C@@H](O)[C@H](O)[C@H](O)[C@H]1O.O [L(+)-rhamnose monohydrate]
MIC, minimum concentration to inhibit odorranalectin-mediated erythrocytes hemagglutination ([1]; sugars): > 200 mM

C[C@H](O)[C@@H](O)[C@@H](O)[C@H](O)C=O [L-fucose, reference compound]
Kd ([2]; SPR Biacore 3000, CM-5 chip, HBS-EP pH 7.4, calculated from ka and kd): 54.7 µM
kon ([2]; pH 7.4, read-out: ka): 159 M⁻¹ s⁻¹
koff ([2]; pH 7.4, read-out: kd): 0.00867 s⁻¹
minimal effective concentration ([1]; Oryctolagus cuniculus, Erythrocyte, read-out: MIC, minimum concentration to inhibit odorranalectin-mediated erythrocytes hemagglutination): 12500 µM

CC(=O)N[C@@H]1C(O)O[C@H](CO)[C@@H](O)[C@@H]1O (stereo partly drawn) [N-acetyl-D-mannosamine]
MIC, minimum concentration to inhibit odorranalectin-mediated erythrocytes hemagglutination ([1]; sugars): > 200 mM

CC(=O)N[C@@H]1[C@@H](O)[C@@H](O)[C@@H](CO)O[C@@H]1O [N-acetylgalactosamine]
MIC, minimum concentration to inhibit odorranalectin-mediated erythrocytes hemagglutination ([1]; sugars): > 200 mM

O=C(CO)N[C@H]1[C@H]([C@H](O)[C@H](O)CO)OC(O)(C(=O)O)C[C@@H]1O (stereo partly shown) [N-glycolylneuraminc acid]
MIC, minimum concentration to inhibit odorranalectin-mediated erythrocytes hemagglutination ([1]; sugars): > 200 mM

OC[C@@H](O)[C@H](O)[C@H](O)[C@@H](O)CO [dulcitol]
MIC, minimum concentration to inhibit odorranalectin-mediated erythrocytes hemagglutination ([1]; sugars): > 200 mM

CC(C)S[C@@H]1O[C@H](CO)[C@H](O)[C@H](O)[C@H]1O [isopropy-β-D-thiogalactoside]
MIC, minimum concentration to inhibit odorranalectin-mediated erythrocytes hemagglutination ([1]; sugars): > 200 mM

D(+)-maltose monohydrate
MIC, minimum concentration to inhibit odorranalectin-mediated erythrocytes hemagglutination ([1]; sugars): > 200 mM

Fetuin: glycoprotein used as analyte and inhibitor
ka [2, 3]: 2890 M⁻¹ s⁻¹
kd [2, 3]: 0.00061 s⁻¹
Inhibition of the hemagglutinating activity of odorranalectin by glycoproteins (in words) [1]: most effective inhibitor
MIC, minimum concentration to inhibit odorranalectin-mediated erythrocytes hemagglutination ([1]; glycoproteins): 15.63 µg/mL and 15.6 µg/mL

Transferrin: glycoprotein used as analyte
Binding to immobilized odorranalectin (in words) ([2]; SPR): did not bind
Inhibition of the hemagglutinating activity of odorranalectin by glycoproteins (in words) [1]: All the glycoproteins except transferrin could inhibit

heparin
MIC, minimum concentration to inhibit odorranalectin-mediated erythrocytes hemagglutination ([1]; sugars): > 200 mM

inulin
MIC, minimum concentration to inhibit odorranalectin-mediated erythrocytes hemagglutination ([1]; sugars): > 200 mM
